These results are taken from patent publication EP0308781A2, “Antimycotic preparations” (BAYER AG, priority 1987, dated 1989).

The experiment has as its system Candida-Zellen. The experiment can be described thus: Antimycotic in vivo efficacy (oral) in mouse candidosis. The following applies: for Wirkung: mice infected i.v. with 1 - 2 x 10^6 Candida cells, oral treatment with 10 - 100 mg/kg each, one hour before and seven hours after infection, survivors on day 6 p.i. On the set-up: species or system Mäuse vom Typ SPF-CF1; key to Wirkung: + + + + +: sehr gute Wirkung = 90 % Überlebende am 6.Tag.p.i.; + + + +: gute Wirkung = 80 % Überlebende am 6.Tag.p.i.; + + +: Wirkung = 60 % Überlebende am 6.Tag.p.i.; + +: schwache Wirkung = 40 % Überlebende am 6.Tag.p.i.; +: Spur Wirkung = unter 40 % Überlebende am 6. Tag p.i.; k.W.: kein Unterschied zur unbehandelten Infektionskontrolle. As to the method: Antimykotische in-vivo-Wirksamkeit (oral) bei Mäusecandidose
Mäuse vom Typ SPF-CF1 wurden intravenös mit […] logarithmisch wachsenden Candida-Zellen, die in physiologischer Kochsalzlösung suspendiert werden, infiziert. Eine Stunde vor und sieben Stunden nach der Infektion werden die Tiere mit jeweils 10 - 100 mg/kg Körpergewicht der Präparate oral behandelt.
Unbehandelte Tiere starben 3 bis 6 Tage post infektionem. Die Überlebensrate am 6.Tag post infektionem betrug bei unbehandelten Kontrolltieren etwa 5 %.

For `OC(Cn1cncn1)(c1ccc(Cl)cc1)C1(F)CC1` (stereo not shown) [(A)], the Wirkung entry is given as “k.W”.

In the case of `OC(Cc1ccc(F)cc1)(Cn1cncn1)C1(Cl)CC1` (stereo not shown) [(I-1), 1-(4-Fluorphenyl)-2-(1-chlor-cyclopropyl)-3-(1,2,4-triazol-1-yl)-propan-2-ol], the Wirkung result is given as “+ + + + + (sehr gute Wirkung = 90 % Überlebende am 6.Tag.p.i.)”. Moreover, under “oral, mouse candidosis, statement in words, compared with (A) and (B)”, the “Wirkung (comparison with known compounds)” value was “bessere Wirkung”.

Consider `OC(Cn1cncn1)(c1ccccc1)C1(F)CC1` (stereo not shown) [(B)], for which the Wirkung entry was “k.W”.
